We go through twelve compounds from ChEMBL document CHEMBL3259604, “Synthesis and anti-BVDV activity of novel δ-sultones in vitro: implications for HCV therapies” (Bioorg Med Chem Lett, 2014).

Series [1] relates to Bovine viral diarrhea virus 1. Briefly: Antiviral activity against BVDV AV-69 infected in MDBK cells assessed as cytopathic effect after 3 to 4 days by plaque reduction assay. In kind it is functional, organism-based. To be noted: Bovine viral diarrhea virus isolates and strains, AV-69, MDBK. In general terms: Damage to the host cells serves as the signal in cytopathic effect assays.

The nature of series [2]: Cytotoxicity against MDBK cells after 48 hrs by MTT assay. Type of series: cell-based, Bos taurus. To be noted: cattle.
The nature of series [3]: Cytotoxicity against MDBK cells at 20 uM after 48 hrs by MTT assay. To be noted: cattle. Type of series: cell-based, Bos taurus. In general terms: Tetrazolium assays rely on reduction of a dye to a coloured formazan, in cell work by metabolically active cells.
Series [4] relates to Bovine viral diarrhea virus 1. Briefly: Ratio of ribavirin EC50 to compound EC50 for BVDV AV-69. In kind it is functional.

Broadly, the EC50 is the concentration that produces a half-maximal response. As for `COc1ccc(C2=C3CS(=O)(=O)OCC3(C)OC2=O)cc1` (stereo not drawn), the EC50 in series [1] is over 1200 nM. A word on the CC50: it is the concentration at which the toxic effect on the cells reaches its halfway point. High values mean better tolerance by the cells, low ones harm at low concentration. For `NC(=O)c1ncn([C@@H]2O[C@H](CO)[C@@H](O)[C@H]2O)n1` [RIBAVIRIN], the EC50 in series [1] was 1300 nM. Besides, in series [2], the CC50 at 48 h is over 20000 nM.

Regarding `CC12COS(=O)(=O)CC1=C(c1ccc(F)cc1)C(=O)O2` (stereo not drawn), the half-maximal effective concentration (EC50) in series [1] was over 1200 nM. Consider `CC12COS(=O)(=O)CC1=C(c1cccc(F)c1)C(=O)O2` (stereo not drawn), for which, in series [1], the EC50 worked out at 1000 nM. Besides, in series [2], the CC50 at 48 h was over 20000 nM. Take `CC12COS(=O)(=O)CC1=C(c1ccc(Br)cc1)C(=O)O2` (stereo not drawn): the EC50 in series [1] amounted to 1000 nM. The Activity entry in series [3] is listed as “Non-toxic”. On to `CC12COS(=O)(=O)CC1=C(c1ccccc1Br)C(=O)O2` (stereo not drawn), for which, in series [4], the “Ratio EC50” value was 10. Moreover, the EC50 in series [1] amounted to 120 nM. This compound also returned a CC50 at 48 h in series [2] of over 20000 nM. On to `Cc1ccc(C2=C3CS(=O)(=O)OCC3(C)OC2=O)cc1` (stereo not drawn), for which the EC50 in series [1] is over 1200 nM. Also, the Activity entry in series [3] was “Non-toxic”. On to `CC12COS(=O)(=O)CC1=C(c1ccc(Cl)cc1)C(=O)O2` (stereo not drawn), for which the 50% effective concentration (EC50) in series [1] turned out to be 500 nM. Further, the Activity result in series [3] is reported as “Non-toxic”.

With `CC12COS(=O)(=O)CC1=C(c1ccc(F)c(F)c1)C(=O)O2` (stereo not drawn), the EC50 in series [1] is over 1200 nM. Besides, the Activity entry in series [3] is reported as “Non-toxic”. `CC12COS(=O)(=O)CC1=C(c1ccccc1)C(=O)O2` (stereo not drawn): the EC50 in series [1] was 500 nM. Further, the CC50 at 48 h in series [2] is over 20000 nM. With `CC12COS(=O)(=O)CC1=C(c1ccccc1F)C(=O)O2` (stereo not drawn), the EC50 in series [1] was determined as 500 nM. The CC50 at 48 h in series [2] was over 20000 nM. Take `CC12COS(=O)(=O)CC1=C(c1ccc(C(F)(F)F)cc1)C(=O)O2` (stereo not drawn): the EC50 in series [1] is over 1200 nM. For the same compound, in series [3], the Activity entry is “Non-toxic”.
